{"source": "patent US9636347B2", "about": "“Sustained release formulations for the treatment of intraocular pressure or glaucoma” (Icon Bioscience, Inc., priority 2013, dated 2017)", "key": {"[1]": {"settings": "cited from earlier work"}, "[2]": {"assay": "Solubility of latanoprost", "assay_type": "physicochemical", "settings": "1%, 2% or 4% (w/w %) formulations, clear solution", "source_text": "Latanoprost and other prostaglandin analogs are available commercially, for example, from Cayman Chemical (Ann Arbor, Mich.).\nLiquid formulations of latanoprost and benzyl benzoate were made by weighing each component and mixing them together. Latanoprost is soluble in benzyl benzoate, yielding a clear solution. The formulations were either 1%, 2%, or 4% (w/w %) latanoprost."}}, "data": [{"smiles": "CC(C)OC(=O)CCC/C=C\\C[C@@H]1[C@@H](CC[C@@H](O)CCc2ccccc2)[C@H](O)C[C@@H]1O", "note": "[Latanoprost, isopropyl-(Z)7[(1R,2R,3R,5S)3,5-dihydroxy-2-[(3R)-3-hydroxy-5-phenylpentyl]cyclopentyl]-5-heptenoate]", "values": [{"measurement": "solubility in acetone, ethanol, ethyl acetate, isopropanol, methanol, and octanol", "setting": "[1]; acetone, ethanol, ethyl acetate, isopropanol, methanol, octanol", "value": "freely soluble"}, {"measurement": "solubility in acetonitrile", "setting": "[1]; acetonitrile", "value": "very soluble"}, {"measurement": "solubility in water", "setting": "[1]; water", "value": "practically insoluble"}, {"measurement": "solubility in benzyl benzoate", "setting": "[2]", "value": "soluble"}]}]}
